Source: US11873405B2, “High oleic oil compositions and uses thereof” (priority 2021, dated 2024)

Legend:
[1] = test system: E06 mutant (Strain K) microalgae cells; test: Selection for tolerance to membrane stress: growth (OD750) in 3-day lipid production culture, 96-deep well block; type: cell-based, Prototheca wickerhamii; conditions: fixed 1.6 μM triparanol plus increasing phenethyl alcohol, FIG. 6
Experimental: The mutant strain, Strain 0_E06 (Strain E06), while not phenotypically stable, consistently achieved higher oleate levels than the mutant lineage that gave rise to Strain 1 (TABLE 3). As such, this mutant lineage was selected for further rounds of classical strain improvement, and designated as “Strain K”. Following overnight growth in M21+40 g/L glucose seed media to mid-log phase, the E06 mutant was exposed to 270 mM ethyl methanesulfonate (EMS) in 0.1 M potassium phosphate buffer (pH 7.0) for 45 min at room temperature in dark and with periodic gentle agitation. Mutagenesis was terminated with the addition of a sodium thiosulfate solution to final concentration of 3% (w/v). In parallel, a mock-mutagenized control cell population was taken through all the same manipulations, except for exposure to EMS. Cells were collected using 0.2-micron filter sterilization units, washed extensively with water, and then washed with and into 5 mL M20+5 g/L glucose pre-seed media. Pre-seed cultures were incubated at 28° C./900 rpm/80% humidity for 72 h. An 8% (v/v) inoculum from each culture was then used to initiate a seed culture in 10 mL of standard M21+5 g/L glucose seed media in 50-mL bioreactor tubes. […] Growth was then assessed by measuring optical density at 750 nm wavelength (OD750) in a Molecular Devices Spectramax M5 plate reader. […]

[2] = test system: E06 mutant (Strain K) microalgae cells; test: Selection for tolerance to triparanol: growth in 3-day lipid production culture, 96-deep well block; type: cell-based, Prototheca wickerhamii; conditions: cells exposed to increasing amounts of triparanol, FIG. 7
Experimental: The cryo-vials were thawed and used to initiate a 10 mL pre-seed culture in bioreactor tube, which was incubated for 72 h at 28° C./200 rpm. Two rounds of selection and enrichment with increasing amounts of triparanol were conducted following the strategy outlined in FIG. 3. […] This population was collected on sterile filters, diluted, and spread on solid media. The resulting clonal isolates were screened in our automated 96-well block-based lipid production and glucose consumption assay. A number of strains with increased oleate levels were identified among the mutant clones (TABLE 5). Strains validated in repeat assays were then assessed for phenotypic stability. Stable strains were cryo-preserved.
Cells were exposed to increasing amounts of triparanol during a 3-day lipid production culture in a 96-deep well block. Significant inhibition of growth occurred at […] concentrations >2 μM. Rare surviving cells presumed to be in wells where 50% inhibition was observed were recovered by sterile filtration, washed with and collected from the filter in M20+glucose pre-seed media. The cultures were then used to initiate another round of selection. By the third round of selection (right panels), a subtle difference in the growth of the mutant population compared to the mock-mutagenized controls was observed. […]

In the case of OCCc1ccccc1 [phenethyl alcohol], the “concentrations at which significant inhibition of growth occurred” value [1] is reported as greater than 3.6 mM and the “concentrations at which significant inhibition of growth occurred” value [2] is reported as greater than 2 µM.
